# According to ChEMBL document CHEMBL3108668, “Antitumor activity of jujuboside B and the underlying mechanism via induction of apoptosis and autophagy” (J Nat Prod, 2014):
# Activity calls are given as the source filed them. The rule behind the calls is not given here.
# How the values were obtained:
# [1] = tested on: AGS; assay: Induction of apoptosis in human AGS cells assessed as apoptotic cells at 150 uM after 24 hrs by annexin V-FITC/propidium iodide staining-based flow cytometry; assay type: functional
# [2] = tested on: AGS; assay: Induction of apoptosis in human AGS cells assessed as caspase-8 activation at 25 to 150 uM after 24 hrs by Western blotting analysis; assay type: functional, cell-based
# [3] = tested on: AGS; assay: Induction of apoptosis in human AGS cells assessed as caspase-3 activation after 24 hrs by Western blotting analysis; assay type: functional, cell-based
# [4] = tested on: AGS; assay: Cell cycle arrest in human AGS cells assessed as accumulation at sub G1 phase at 150 uM after 24 hrs by propidium iodide staining-based flow cytometry; assay type: functional
# [5] = tested on: HCT-116; assay: Induction of apoptosis in human HCT116 cells assessed as necrotic cells at 100 uM after 24 hrs by annexin V-FITC/propidium iodide staining-based flow cytometry (reference value: 0.68%); assay type: functional
# [6] = tested on: HCT-116; assay: Induction of autophagy in human HCT116 cells assessed as massive vacuole formation at 50 uM after 24 hrs by fluorescence microscopy; assay type: functional, cell-based
# [7] = tested on: HCT-116; assay: Antitumor activity against human HCT116 cells xenografted in BALB/c nude mouse at 40 mg/kg, ip administered 3 times a week for 5 weeks relative to control; assay type: functional; conditions: route intraperitoneal
# [8] = tested on: AGS; assay: Induction of apoptosis in human AGS cells assessed as increase in pJNK level at 100 uM after 24 hrs by Western blotting analysis in presence of bafilomycin A1; assay type: functional, cell-based
# [9] = tested on: HCT-116; assay: Induction of apoptosis in human HCT116 cells assessed as early apoptotic cells at 25 uM after 24 hrs by annexin V-FITC/propidium iodide staining-based flow cytometry (reference value: 3.61%); assay type: functional
# [10] = tested on: AGS; assay: Induction of apoptosis in human AGS cells assessed as early apoptotic cells at 25 uM after 24 hrs by annexin V-FITC/propidium iodide staining-based flow cytometry (reference value: 6.6%); assay type: functional
# [11] = tested on: HCT-116; assay: Induction of apoptosis in human HCT116 cells assessed as membrane blebbing at >100 uM after 24 hrs by acridine orange staining-based microscopy; assay type: functional, cell-based
# [12] = tested on: AGS; assay: Induction of autophagy in human AGS cells assessed as increase in LC3-2 level at 50 uM after 24 hrs by Western blotting analysis; assay type: functional, cell-based
# [13] = tested on: AGS; assay: Induction of apoptosis in human AGS cells assessed as late apoptotic cells at 25 uM after 24 hrs by annexin V-FITC/propidium iodide staining-based flow cytometry (reference value: 7.3%); assay type: functional
# [14] = tested on: AGS; assay: Induction of apoptosis in human AGS cells assessed as increase in pJNK level at 25 to 150 uM after 24 hrs by Western blotting analysis; assay type: functional, cell-based
# [15] = tested on: HCT-116; assay: Induction of apoptosis in human HCT116 cells assessed as late apoptotic cells at 25 uM after 24 hrs by annexin V-FITC/propidium iodide staining-based flow cytometry (reference value: 2.71%); assay type: functional
# [16] = tested on: AGS; assay: Induction of apoptosis in human AGS cells assessed as reduction of caspase3 activation at 100 uM after 24 hrs by Western blotting analysis in presence of SB202190; assay type: functional, cell-based
# [17] = tested on: AGS; assay: Induction of apoptosis in human AGS cells assessed as late apoptotic cells at 50 uM after 24 hrs by annexin V-FITC/propidium iodide staining-based flow cytometry (reference value: 7.3%); assay type: functional
# [18] = tested on: AGS; assay: Induction of apoptosis in human AGS cells assessed as increase in LC3-2 level at 50 uM after 24 hrs by Western blotting analysis in presence of bafilomycin A1; assay type: functional, cell-based
# [19] = tested on: AGS; assay: Induction of apoptosis in human AGS cells assessed as early apoptotic cells at 100 uM after 24 hrs by annexin V-FITC/propidium iodide staining-based flow cytometry (reference value: 6.6%); assay type: functional
# [20] = tested on: AGS; assay: Induction of apoptosis in human AGS cells assessed as reduction of caspase3 activation at 100 uM after 24 hrs by Western blotting analysis in presence of bafilomycin A1; assay type: functional, cell-based
# [21] = tested on: HCT-116; assay: Cell cycle arrest in human HCT116 cells assessed as accumulation at sub G1 phase after 24 hrs by propidium iodide staining-based flow cytometry; assay type: functional
# [22] = tested on: AGS; assay: Induction of apoptosis in human AGS cells assessed as reduction of caspase8 activation at 100 uM after 24 hrs by Western blotting analysis in presence of bafilomycin A1; assay type: functional, cell-based
# [23] = tested on: AGS; assay: Cell cycle arrest in human AGS cells assessed as accumulation at sub G1 phase at 100 uM after 24 hrs by propidium iodide staining-based flow cytometry; assay type: functional
# [24] = tested on: AGS; assay: Induction of apoptosis in human AGS cells assessed as increase in pp38 level at 100 uM after 24 hrs by Western blotting analysis in presence of bafilomycin A1; assay type: functional, cell-based
# [25] = tested on: HCT-116; assay: Induction of apoptosis in human HCT116 cells assessed as late apoptotic cells at 50 uM after 24 hrs by annexin V-FITC/propidium iodide staining-based flow cytometry (reference value: 2.71%); assay type: functional
# [26] = tested on: HCT-116; assay: Induction of autophagy in human HCT116 cells assessed as massive vacuole formation at 50 uM after 24 hrs by acridine orange staining-based fluorescence microscopy; assay type: functional, cell-based
# [27] = tested on: AGS; assay: Induction of apoptosis in human AGS cells assessed as apoptotic cells at 50 uM after 24 hrs by annexin V-FITC/propidium iodide staining-based flow cytometry; assay type: functional
# [28] = tested on: AGS; assay: Induction of apoptosis in human AGS cells assessed as increase in FasL level at 100 uM after 24 hrs by Western blotting analysis in presence of bafilomycin A1; assay type: functional, cell-based
# [29] = tested on: AGS; assay: Induction of apoptosis in human AGS cells assessed as increase in pp38 level at 25 to 150 uM after 24 hrs by Western blotting analysis; assay type: functional, cell-based
# [30] = tested on: HCT-116; assay: Induction of apoptosis in human HCT116 cells assessed as early apoptotic cells at 100 uM after 24 hrs by annexin V-FITC/propidium iodide staining-based flow cytometry (reference value: 3.61%); assay type: functional
# [31] = tested on: AGS; assay: Induction of apoptosis in human AGS cells assessed as reduction of FasL level at 100 uM after 24 hrs by Western blotting analysis in presence of SP600125; assay type: functional, cell-based
# [32] = tested on: AGS; assay: Induction of apoptosis in human AGS cells assessed as early apoptotic cells at 50 uM after 24 hrs by annexin V-FITC/propidium iodide staining-based flow cytometry (reference value: 6.6%); assay type: functional
# [33] = tested on: HCT-116; assay: Antitumor activity against human HCT116 cells xenografted in BALB/c nude mouse assessed as reduction of Ki-67 expression at 40 mg/kg, ip administered 3 times a week for 5 weeks by immunohistochemical analysis; assay type: functional, organism-based; parameters: dose 40 mg/kg
# [34] = tested on: HCT-116; assay: Induction of apoptosis in human HCT116 cells assessed as late apoptotic cells at 100 uM after 24 hrs by annexin V-FITC/propidium iodide staining-based flow cytometry (reference value: 2.71%); assay type: functional
# [35] = tested on: AGS; assay: Induction of apoptosis in human AGS cells assessed as cell rounding at >100 uM after 24 hrs by acridine orange staining-based microscopy; assay type: functional
# [36] = tested on: HCT-116; assay: Induction of apoptosis in human HCT116 cells assessed as necrotic cells at 150 uM after 24 hrs by annexin V-FITC/propidium iodide staining-based flow cytometry (reference value: 0.68%); assay type: functional
# [37] = tested on: AGS; assay: Induction of apoptosis in human AGS cells assessed as reduction of caspase8 activation at 100 uM after 24 hrs by Western blotting analysis in presence of SP600125; assay type: functional, cell-based
compound,measurement,setting,value
CC(C)=C[C@H]1C[C@](C)(O)[C@@H]2[C@H]3CC[C@@H]4[C@@]5(C)CC[C@H](O[C@@H]6OC[C@H](O)[C@H](O[C@@H]7O[C@H](CO)[C@@H](O)[C@H](O)[C@H]7O[C@@H]7OC[C@@H](O)[C@H](O)[C@H]7O)[C@H]6O[C@@H]6O[C@@H](C)[C@H](O)[C@@H](O)[C@H]6O)C(C)(C)[C@@H]5CC[C@@]4(C)[C@@]34CO[C@@]2(C4)O1,Activity,[1],39.55%
same,Activity,[2],Active
same,Activity,[3],Dose-dependent effect
same,Activity,[4],21.73%
same,Activity,[5],3.05%
same,Activity,[6],Active
same,Activity,[7],60%
same,Activity,[8],Active
same,Activity,[9],2.64%
same,Activity,[10],5.57%
same,Activity,[11],Active
same,Activity,[12],Active
same,Activity,[13],5.24%
same,Activity,[14],Active
same,Activity,[15],1.67%
same,Activity,[16],inactive
same,Activity,[17],7.05%
same,Activity,[18],Active
same,Activity,[19],16.41%
same,Activity,[20],Active
same,Activity,[21],Dose-dependent effect
same,Activity,[22],Active
same,Activity,[23],8.29%
same,Activity,[24],Active
same,Activity,[25],2.53%
same,Activity,[26],Active
same,Activity,[27],15.78%
same,Activity,[28],Active
same,Activity,[29],Active
same,Activity,[30],37.59%
same,Activity,[31],inactive
same,Activity,[32],8.73%
same,Activity,[33],Active
same,Activity,[34],9.74%
same,Activity,[35],Active
same,Activity,[36],5.1%
same,Activity,[37],inactive
